The nature of series [1]: Photodegradation upon exposure to ultraviolet light by HPLC analysis. The note with it: for relative stabilities: assuming the dosage codes were equivalent.
The conditions of series [2]: more sensitive to the αPTT; cited from earlier work.

The values that follow come from US8715920B2, “Composition for preserving platelets during photosensitization” (Biovec Transfusion, LLC, priority 2010, dated 2014).

Molecules are shown by their SMILES. Entries after “also recorded” stand apart in the source; their conditions may differ. Positions of bridges follow the written chain, without caps; N, C: chain ends. Non-standard residues stand in square brackets, D forms with d. Residues, ends and D or L forms follow the SMILES beside them. hArg = N=C(N)NCCCC[C@H](N)C(=O)O; Mpa = O=C(O)CCS

With `N=C(N)NCCCC[C@@H]1NC(=O)CCSSC[C@@H](C(N)=O)NC(=O)[C@@H]2CCCN2C(=O)[C@H](Cc2c[nH]c3ccccc23)NC(=O)[C@H](CC(=O)O)NC(=O)CNC1=O` [Eptifibatide] ([Mpa][hArg]GDWPC-NH2; disulfide 1-7), the relative stabilities result in series [1] (UV282) is on record as “Argatroban>Tirofiban>>Eptifibatide”; in series [1] (UV308), “Tirofiban>>Argatroban>>Eptifibatide”. Also, the “photodegradation profile, in words” value in series [1] (UV 282 nm) was “faster photodegradation profile than the other compounds tested”. Further, the “HPLC peak relative to unexposed control” value in series [1] (UV 282 nm, exposure A) is listed as 47.0%; in series [1] (UV 282 nm, remainder of the exposures (after exposure A)) it was “below the LLOD”. The “photodegradation, in words” value in series [1] (UV 308 nm) was “substantial photodegradation, but to a lesser extent than at UV282”.

For `COc1ccc2ccc(S(=O)(=O)N(C)[C@H]3CCN(Cc4csc(C(=N)N)c4)C3=O)cc2c1` [RPR-120844], the “effect on PT and αPTT” value in series [2] is “prolongs the PT and αPTT in a concentration-dependent manner”.

Consider `CCCCS(=O)(=O)N[C@@H](Cc1ccc(OCCCCC2CCNCC2)cc1)C(=O)O` [Tirofiban], for which the “HPLC peak relative to unexposed control” value in series [1] (UV 282 nm, exposure A) is recorded as 81.2%; in series [1] (UV 282 nm, exposure B), 59.9%; in series [1] (UV 282 nm, exposure C) it was 37.7%; in series [1] (UV 282 nm, exposure D), 15.4%; in series [1] (UV 282 nm, exposure F) it was “below the LLOQ; also recorded: indeterminate”; in series [1] (UV 308 nm, exposure A), 81.2%. The “HPLC peak relative to unexposed control” value in series [1] (UV 308 nm, exposure B) is 76.9%; in series [1] (UV 308 nm, exposure C) it was 73.0%.
